Key:
Experiment in all cases: DSF selectivity screening
Assay type in all cases: binding
Settings in all cases: 10 μM compound
[1] = target: MERTKA (Homo sapiens, UniProt Q12866)
Experimental: (§1) The assay was performed as previously described.[29],[35] Briefly, recombinant protein kinase domains at a concentration of 2 μM were mixed with a 10 μM compound in a buffer containing 20 mM HEPES, pH 7.5, and 500 mM NaCl. SYPRO Orange (5000×, Invitrogen) was added as a fluorescence probe (1 μL per mL). Subsequently, temperature-dependent protein unfolding profiles were measured using a QuantStudio 5 real-time PCR machine (Thermo Fisher). Excitation and emission filters were set to 465 and 590 nm, respectively. The temperature was raised with a step rate of 3 °C per minute. Data points were analyzed with internal software (Thermal Shift Software version 1.4, Thermo Fisher) using the Boltzmann equation to determine the inflection point of the transition curve (Table S4).

[2] = target: STK4A (Homo sapiens, UniProt Q13043)
Experimental: as §1

[3] = target: EPHB3A (Homo sapiens, UniProt P54753)
EPHB3A, sequence (P54753 616-910): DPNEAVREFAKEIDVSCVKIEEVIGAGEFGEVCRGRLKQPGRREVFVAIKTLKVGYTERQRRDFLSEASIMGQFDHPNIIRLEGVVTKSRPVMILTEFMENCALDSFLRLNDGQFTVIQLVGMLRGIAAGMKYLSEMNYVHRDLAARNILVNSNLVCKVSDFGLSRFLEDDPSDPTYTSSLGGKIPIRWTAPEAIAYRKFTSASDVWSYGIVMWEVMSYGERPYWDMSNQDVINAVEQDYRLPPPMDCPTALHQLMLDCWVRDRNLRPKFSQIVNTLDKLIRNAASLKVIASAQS
Experimental: as §1

[4] = target: CAMKK2B (Homo sapiens, UniProt Q96RR4)
CAMKK2B, sequence (Q96RR4 161-449): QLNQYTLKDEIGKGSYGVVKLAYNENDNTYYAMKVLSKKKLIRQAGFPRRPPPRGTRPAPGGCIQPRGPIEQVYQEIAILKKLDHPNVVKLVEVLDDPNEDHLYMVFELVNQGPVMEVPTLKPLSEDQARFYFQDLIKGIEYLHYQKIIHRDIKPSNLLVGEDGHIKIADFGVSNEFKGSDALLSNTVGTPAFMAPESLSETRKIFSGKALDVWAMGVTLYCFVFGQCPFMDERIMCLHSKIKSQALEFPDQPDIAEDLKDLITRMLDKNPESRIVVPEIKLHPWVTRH
Experimental: as §1

[5] = target: MAPK10A (Homo sapiens, UniProt P53779)
MAPK10A, sequence (P53779 39-402): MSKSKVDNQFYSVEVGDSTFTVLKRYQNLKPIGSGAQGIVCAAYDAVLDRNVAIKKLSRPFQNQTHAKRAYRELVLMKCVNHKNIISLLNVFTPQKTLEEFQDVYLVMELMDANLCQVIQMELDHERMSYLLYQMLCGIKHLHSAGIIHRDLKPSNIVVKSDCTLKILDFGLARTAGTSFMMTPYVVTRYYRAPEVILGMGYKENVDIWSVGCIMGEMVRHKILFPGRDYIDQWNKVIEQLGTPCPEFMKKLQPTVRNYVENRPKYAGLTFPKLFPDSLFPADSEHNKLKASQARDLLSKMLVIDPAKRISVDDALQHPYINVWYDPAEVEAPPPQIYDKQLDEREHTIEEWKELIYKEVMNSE
Experimental: as §1

[6] = target: PAK1A (Homo sapiens, UniProt Q13153)
PAK1A, sequence (Q13153 249-545): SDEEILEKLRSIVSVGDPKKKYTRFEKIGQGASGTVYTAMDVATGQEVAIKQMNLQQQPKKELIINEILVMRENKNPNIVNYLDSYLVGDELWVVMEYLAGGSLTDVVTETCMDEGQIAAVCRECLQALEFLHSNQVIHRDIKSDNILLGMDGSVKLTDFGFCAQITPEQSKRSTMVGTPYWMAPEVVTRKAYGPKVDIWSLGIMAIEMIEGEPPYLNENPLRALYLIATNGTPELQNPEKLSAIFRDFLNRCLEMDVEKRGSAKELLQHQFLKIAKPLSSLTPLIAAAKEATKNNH
Experimental: as §1

[7] = target: FGFR3A (Homo sapiens, UniProt P22607)
Experimental: as §1

[8] = target: MELKA (Homo sapiens, UniProt Q14680)
Experimental: as §1

[9] = target: MST3A (Homo sapiens, UniProt Q9Y6E0)
Experimental: as §1

[10] = target: MAP2K4A (Homo sapiens, UniProt P45985)
Experimental: as §1

[11] = target: STK38LA (Homo sapiens, UniProt Q9Y2H1)
Experimental: as §1

[12] = target: BRAFA (Homo sapiens, UniProt P15056)
Experimental: as §1

[13] = target: GAKA (Homo sapiens, UniProt O14976)
Experimental: as §1

[14] = target: PIM3A (Homo sapiens, UniProt Q86V86)
Experimental: as §1

[15] = target: STK6A (Homo sapiens, UniProt O14965)
STK6A, sequence (O14965 122-403): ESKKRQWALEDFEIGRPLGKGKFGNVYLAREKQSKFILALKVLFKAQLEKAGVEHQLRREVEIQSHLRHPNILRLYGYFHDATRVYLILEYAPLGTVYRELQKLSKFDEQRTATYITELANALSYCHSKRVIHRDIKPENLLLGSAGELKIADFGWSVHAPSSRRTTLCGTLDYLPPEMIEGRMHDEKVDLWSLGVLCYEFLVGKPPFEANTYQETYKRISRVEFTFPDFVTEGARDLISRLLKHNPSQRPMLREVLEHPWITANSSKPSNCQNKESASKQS
Experimental: as §1

[16] = target: RIOK1A (Homo sapiens, UniProt Q9BRS2)
Experimental: as §1

[17] = target: TLK1A (Homo sapiens, UniProt Q9UKI8)
Experimental: as §1

[18] = target: MAP2K1A (Homo sapiens, UniProt Q02750)
Experimental: as §1

[19] = target: PKMYT1A (Homo sapiens, UniProt Q99640)
Experimental: as §1

[20] = tested on: RPS6KA5A
Experimental: as §1

[21] = target: DAPK1A (Homo sapiens, UniProt P53355)
Experimental: as §1

[22] = target: AKT3A (Homo sapiens, UniProt Q9Y243)
AKT3A, sequence (Q9Y243 148-479): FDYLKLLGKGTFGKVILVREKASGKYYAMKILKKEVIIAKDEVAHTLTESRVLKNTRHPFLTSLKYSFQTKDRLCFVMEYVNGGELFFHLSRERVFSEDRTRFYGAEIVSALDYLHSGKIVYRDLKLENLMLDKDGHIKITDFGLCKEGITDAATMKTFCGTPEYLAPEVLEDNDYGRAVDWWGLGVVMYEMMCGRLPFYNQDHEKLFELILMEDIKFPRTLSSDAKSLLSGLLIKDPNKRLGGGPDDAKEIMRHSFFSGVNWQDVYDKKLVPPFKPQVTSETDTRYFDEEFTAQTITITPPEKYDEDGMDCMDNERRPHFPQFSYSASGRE
Experimental: as §1

[23] = target: HIPK2 (Homo sapiens, UniProt Q9H2X6)
Experimental: as §1

[24] = target: PAK4A (Homo sapiens, UniProt O96013)
Experimental: as §1

[25] = target: SLKA (Homo sapiens, UniProt Q9H2G2)
Experimental: as §1

[26] = target: OSR1A (Homo sapiens, UniProt O95747)
Experimental: as §1

[27] = target: WNK1A (Homo sapiens, UniProt Q9H4A3)
Experimental: as §1

[28] = target: BMP2KA (Homo sapiens, UniProt Q9NSY1)
BMP2KA, sequence (Q9NSY1 38-345): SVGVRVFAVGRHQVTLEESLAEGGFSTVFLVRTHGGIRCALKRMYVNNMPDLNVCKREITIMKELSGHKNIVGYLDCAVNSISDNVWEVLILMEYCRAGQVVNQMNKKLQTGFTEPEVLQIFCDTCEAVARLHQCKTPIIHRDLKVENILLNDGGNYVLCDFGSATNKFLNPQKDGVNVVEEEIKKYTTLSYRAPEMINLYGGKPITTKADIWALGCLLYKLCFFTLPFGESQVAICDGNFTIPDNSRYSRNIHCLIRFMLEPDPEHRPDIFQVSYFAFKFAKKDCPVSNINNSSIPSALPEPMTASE
Experimental: as §1

[29] = target: CAMK1GA (Homo sapiens, UniProt Q96NX5)
CAMK1GA, sequence (Q96NX5 whole entry): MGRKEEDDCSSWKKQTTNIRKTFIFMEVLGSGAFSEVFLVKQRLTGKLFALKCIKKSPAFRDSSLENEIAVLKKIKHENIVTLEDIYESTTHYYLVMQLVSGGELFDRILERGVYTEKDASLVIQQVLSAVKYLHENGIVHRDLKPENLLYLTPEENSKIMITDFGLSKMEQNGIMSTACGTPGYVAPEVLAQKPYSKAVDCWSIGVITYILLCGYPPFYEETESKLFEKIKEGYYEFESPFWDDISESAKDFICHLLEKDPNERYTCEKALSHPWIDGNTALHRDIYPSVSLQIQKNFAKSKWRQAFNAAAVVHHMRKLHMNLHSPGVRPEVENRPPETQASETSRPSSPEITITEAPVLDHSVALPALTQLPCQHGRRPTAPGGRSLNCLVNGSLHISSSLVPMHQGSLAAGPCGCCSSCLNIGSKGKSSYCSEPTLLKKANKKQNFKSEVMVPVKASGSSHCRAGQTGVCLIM
Experimental: as §1

[30] = target: TOPKA (Homo sapiens, UniProt Q96KB5)
TOPKA, sequence (Q96KB5 32-322): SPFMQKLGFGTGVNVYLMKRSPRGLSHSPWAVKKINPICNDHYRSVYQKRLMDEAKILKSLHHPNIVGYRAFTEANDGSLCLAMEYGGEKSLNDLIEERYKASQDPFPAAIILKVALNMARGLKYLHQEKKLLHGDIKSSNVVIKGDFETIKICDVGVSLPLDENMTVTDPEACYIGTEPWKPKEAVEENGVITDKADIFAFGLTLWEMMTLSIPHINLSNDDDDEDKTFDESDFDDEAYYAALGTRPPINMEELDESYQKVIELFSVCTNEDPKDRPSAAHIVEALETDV
Experimental: as §1

[31] = target: VRK1A (Homo sapiens, UniProt Q99986)
Experimental: as §1

[32] = target: GSK3BB (Homo sapiens, UniProt P49841)
GSK3BB, sequence (P49841 35-386): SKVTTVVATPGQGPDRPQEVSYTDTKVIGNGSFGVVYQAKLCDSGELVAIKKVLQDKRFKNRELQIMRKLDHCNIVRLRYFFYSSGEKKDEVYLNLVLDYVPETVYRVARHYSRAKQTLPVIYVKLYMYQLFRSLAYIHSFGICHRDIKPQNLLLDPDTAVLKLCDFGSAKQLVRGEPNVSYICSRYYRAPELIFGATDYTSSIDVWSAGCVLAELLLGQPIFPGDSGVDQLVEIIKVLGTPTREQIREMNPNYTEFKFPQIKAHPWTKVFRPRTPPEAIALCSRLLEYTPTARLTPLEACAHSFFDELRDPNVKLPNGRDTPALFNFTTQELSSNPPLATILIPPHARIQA
Experimental: as §1

[33] = target: PCTK1A (Homo sapiens, UniProt Q00536)
Experimental: as §1

[34] = target: STK17BA (Homo sapiens, UniProt O94768)
Experimental: as §1

[35] = target: FGFR2A (Homo sapiens, UniProt P21802)
Experimental: as §1

[36] = target: CHEK2A (Homo sapiens, UniProt O96017)
Experimental: as §1

[37] = target: MAP3K5A (Homo sapiens, UniProt Q99683)
Experimental: as §1

[38] = target: CSNK2A1A (Homo sapiens, UniProt P68400)
CSNK2A1A, sequence (P68400 whole entry): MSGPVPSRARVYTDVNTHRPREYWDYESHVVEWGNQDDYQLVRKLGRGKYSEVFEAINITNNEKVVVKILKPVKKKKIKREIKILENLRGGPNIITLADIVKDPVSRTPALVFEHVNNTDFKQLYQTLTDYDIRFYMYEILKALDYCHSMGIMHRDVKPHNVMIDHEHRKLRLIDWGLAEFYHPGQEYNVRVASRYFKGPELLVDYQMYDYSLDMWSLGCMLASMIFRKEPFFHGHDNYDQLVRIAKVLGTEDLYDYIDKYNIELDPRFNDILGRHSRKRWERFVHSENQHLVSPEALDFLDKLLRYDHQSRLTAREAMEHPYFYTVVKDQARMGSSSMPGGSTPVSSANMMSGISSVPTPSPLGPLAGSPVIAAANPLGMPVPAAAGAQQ
Experimental: as §1

[39] = target: DAPK3A (Homo sapiens, UniProt O43293)
DAPK3A, sequence (O43293 9-289): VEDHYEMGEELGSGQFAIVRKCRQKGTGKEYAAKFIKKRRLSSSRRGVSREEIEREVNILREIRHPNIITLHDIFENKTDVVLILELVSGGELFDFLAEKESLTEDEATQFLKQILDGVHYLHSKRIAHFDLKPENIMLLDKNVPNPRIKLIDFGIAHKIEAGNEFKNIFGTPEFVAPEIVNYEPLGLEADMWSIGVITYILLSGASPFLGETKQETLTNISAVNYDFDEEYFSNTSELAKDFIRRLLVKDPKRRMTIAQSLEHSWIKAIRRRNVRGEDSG
Experimental: as §1

[40] = target: BMXA (Homo sapiens, UniProt P51813)
BMXA, sequence (P51813 411-675): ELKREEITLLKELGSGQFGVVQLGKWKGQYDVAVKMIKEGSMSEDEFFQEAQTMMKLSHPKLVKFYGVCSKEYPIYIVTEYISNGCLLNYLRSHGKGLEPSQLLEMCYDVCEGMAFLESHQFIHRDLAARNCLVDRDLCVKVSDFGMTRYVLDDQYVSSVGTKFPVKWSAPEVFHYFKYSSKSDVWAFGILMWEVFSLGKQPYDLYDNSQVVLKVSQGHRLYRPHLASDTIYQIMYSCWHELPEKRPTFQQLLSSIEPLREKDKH
Experimental: as §1

[41] = target: EPHA5A (Homo sapiens, UniProt P54756)
EPHA5A, sequence (P54756 653-939): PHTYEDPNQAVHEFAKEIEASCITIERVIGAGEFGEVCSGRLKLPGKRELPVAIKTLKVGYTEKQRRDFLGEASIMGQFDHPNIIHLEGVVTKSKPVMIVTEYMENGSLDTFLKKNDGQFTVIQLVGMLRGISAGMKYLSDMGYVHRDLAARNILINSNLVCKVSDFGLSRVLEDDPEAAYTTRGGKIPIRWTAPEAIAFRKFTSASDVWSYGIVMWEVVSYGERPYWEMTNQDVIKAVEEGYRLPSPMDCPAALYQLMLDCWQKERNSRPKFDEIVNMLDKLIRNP
Experimental: as §1

Work on `CN1C(=O)[C@@H](N2CCc3c(nn(Cc4ccccc4)c3C(N)=O)C2=O)COc2cc(Cl)ccc21` [Compound 10, (S)-2-benzyl-6-(8-chloro-5-methyl-4-oxo-2,3,4,5-tetrahydrobenzo[b][1,4]oxazepin-3-yl)-7-oxo-4,5,6,7-tetrahydro-2H-pyrazolo[3,4-c]pyridine-3-carboxamide] yielded a ΔTm at 10 µM [1] of 0.1 °C, a ΔTm at 10 µM [2] of -0.5 °C and a ΔTm at 10 µM [3] of 0.2 °C. The ΔTm at 10 µM [4] was -0.2 °C, the ΔTm at 10 µM [5] was 0 °C and the ΔTm at 10 µM [6] was 0.2 °C. The ΔTm at 10 µM [7] was 0.1 °C, the ΔTm at 10 µM [8] was 0.1 °C and the ΔTm at 10 µM [9] was -0.3 °C. The ΔTm at 10 µM [10] was 0.1 °C, the ΔTm at 10 µM [11] was 0 °C and the ΔTm at 10 µM [12] was 0.1 °C. For the same compound, the ΔTm at 10 µM [13] was 0 °C, the ΔTm at 10 µM [14] was 0.5 °C and the ΔTm at 10 µM [15] was 0.1 °C. The ΔTm at 10 µM [16] was 0.5 °C, the ΔTm at 10 µM [17] was 0 °C and the ΔTm at 10 µM [18] was 0.1 °C. The ΔTm at 10 µM [19] was -0.1 °C, the ΔTM [20] was -0.1 K and the ΔTm at 10 µM [21] was 0.1 °C. The ΔTm at 10 µM [22] was 0 °C, the ΔTm at 10 µM [23] was 0.3 °C and the ΔTm at 10 µM [24] was 0.1 °C. It also gave a ΔTm at 10 µM [25] of -0.3 °C, a ΔTm at 10 µM [26] of 0.4 °C and a ΔTm at 10 µM [27] of 0.4 °C. The ΔTm at 10 µM [28] was 0.3 °C, the ΔTm at 10 µM [29] was -0.2 °C and the ΔTm at 10 µM [30] was -0.1 °C. The ΔTm at 10 µM [31] was -0.2 °C, the ΔTm at 10 µM [32] was 0.1 °C and the ΔTm at 10 µM [33] was 0.2 °C. The ΔTm at 10 µM [34] was 0.1 °C, the ΔTm at 10 µM [35] was 0.1 °C and the ΔTm at 10 µM [36] was -0.1 °C. The ΔTm at 10 µM [37] was 0 °C, the ΔTm at 10 µM [38] was -0.1 °C and the ΔTm at 10 µM [39] was -0.1 °C. For the same compound, the ΔTm at 10 µM [40] was 0.1 °C and the ΔTm at 10 µM [41] was 0 °C.
